57 compounds from a melting point compilation (Tetko et al.; mined from patent text by program, amines drawn as free bases though some values may be those of a salt) can be followed below.

The term melting point denotes the temperature of the solid-liquid transition. On to `CCCc1nc(SC(F)F)c(C(=O)O)n1Cc1ccc(-c2ccccc2S(=O)(=O)NC(=O)NCc2cccc3ccccc23)cc1`, for which the melting point worked out at 144 °C.

In the case of `CN1C(=O)C2CC(c3ccc([N+](=O)[O-])cc3)(C2)C1=O`, the melting point was in the range of 185 to 188 °C.

As to `NC(=O)c1c(Cl)ccc([N+](=O)[O-])c1Cl`, the melting point lay within 163 to 165 °C.

On to `O=C1C(CCO)Oc2ccccc2N1Cc1cccc(Cl)c1` (configuration not stated), for which the melting point lay within 63 to 67 °C.

`C[C@@H](OS(C)(=O)=O)C(=O)N1C(=O)N(C)C[C@H]1C(=O)OC(C)(C)C`: the melting point is 97 to 100 °C.

Consider `CC(C)(C)OC(=O)Nc1ccc(-c2ccc(OCc3ccccc3)nc2)cc1NC(=O)CC(=O)c1cccc(-n2ccnc2)c1`, for which the melting point was in the range of 79 to 83 °C.

In turn, `COCCOc1ccc(/C=C/C(=O)O)c(OCC2CC2)c1` had a melting point of 118 to 119 °C.

As to `Cc1nc(NC(=O)c2cc(F)cc(F)c2)sc1C(=O)NCc1ccccc1`, the melting point was 84 to 86 °C.

`ON=C1CCC(c2ccccc2)CC1c1ccccc1` (configuration not stated) gave a melting point of 214 to 215 °C.

In turn, `C=Cc1cccc2[nH]cc(S(=O)(=O)c3ccccc3)c12` gave a melting point of 125 to 128 °C.

Take `NC(=O)c1[nH]c2ccccc2c1-c1ccc(NC(=O)Nc2ccc(C(F)(F)F)c(Cl)c2)cc1`: the melting point fell in the range of 168 to 170 °C.

Regarding `O=C(c1ccccc1F)c1ccc(O)c(Cl)c1Cl`, the melting point lay within 128 to 131 °C.

On to `C[C@]12CC[C@H](O)CC1=CCC1C2CC[C@@]2(C)C1CC[C@H]2n1cc(-c2ccccc2)nn1` (some centres not stated), for which the melting point was 234 to 236 °C.

`Cc1ccc2c(c1)c(Sc1ccc(Cl)cc1)c(C)n2CC(=O)O`: the melting point lay within 219 to 221 °C.

With `CC(C)CC(=O)c1c(-c2ccc3cc(OCC(=O)O)cc(Br)c3c2)oc2ccccc12`, the melting point is 140 to 142 °C.

Compound `COc1ccc(Sc2cccc(C(=O)O)c2)cc1` registered a melting point of 121 to 123 °C.

Turning to `CC(C)C(C(=O)NC1CCCCC1)N1CC(=O)NCC(=O)NCC(=O)NCC(=O)NCC(=O)NCC1=O` (configuration not stated), the melting point was determined as 275 °C.

For `CN(c1ccc(CC(=O)O)cc1)c1cc(C(C)(C)C)c(O)c(C(C)(C)C)c1`, the melting point was in the range of 181 to 182 °C.

Turning to `COc1ccc(C(=O)Nc2ccc(F)cc2)cc1Nc1cc(C)cc(C)c1`, the melting point lay within 199 to 200 °C.

Turning to `OCCc1nnc(S)s1`, the melting point was 101 to 103 °C.

In turn, `FC(F)(F)c1ccc(-c2cc(C(F)(F)F)c(Br)nn2)cc1` yielded a melting point of 123 to 125 °C.

For the compound `[N-]=[N+]=C1c2ccccc2-c2ccc(F)cc21`, the melting point lay in the range of 89 to 90 °C.

On to `COc1nc(-c2ccc(F)cc2)c(-c2ccc(S(C)(=O)=O)cc2)cc1C#N`, for which the melting point lay within 202 to 204 °C.

Consider `Cc1cc(C(C)(C)C#N)cc(C(C)(C)C#N)c1`, for which the melting point lay within 126 to 127 °C.

The compound `O=C(Oc1ccc(O)c([N+](=O)[O-])c1)c1ccccc1` showed a melting point of 97 °C.

With `CCOP(=O)(OCC)C(O)c1cccc(F)c1` (configuration not stated), the melting point lay in the range of 81 to 82 °C.

Compound `CCCCc1cc2c3c(c[nH]c3c1)CC1C2CC(NC(=O)c2ccccc2)CN1C` (configuration not stated) registered a melting point of 143 to 145 °C.

As to `COCCn1nc(C)c(-c2ccc3c(c2)NC(=O)CO3)c1-c1ccc(F)cc1`, the melting point was found to be 174 °C.

As for `NS(=O)(=O)c1cc(NC(=O)c2cnn3c(C(F)(F)F)cc(-c4ccc(C(F)(F)F)cc4)nc23)c(Cl)s1`, the melting point was 275 °C.

`N#Cc1ccc(-c2ccc(C(=O)O)s2)cc1` yielded a melting point of more than 300 °C.

As for `CNc1c(N)cnn1C`, the melting point was in the range of 185 to 188 °C.

`C#Cc1cccc(Nc2nc(Nc3cccc(C#C)c3)nc(-c3ccccc3)n2)c1` returned a melting point of 210 °C.

`COc1ccc(CCc2cc3cc(C#N)ccc3o2)c(CC(=O)OCc2ccccc2)c1` came in with a melting point of 127 to 128 °C.

In turn, `CC(C)(C)c1cc(-c2nnc(N)s2)cc(C(C)(C)C)c1O` came in with a melting point of 261 °C.

Regarding `CCCCCCCCCCCCCCCCNc1ccc(C(=O)OCC(CO)OC(C)=O)cc1` (configuration not stated), the melting point came out at 67 °C.

`S=P1(c2ccccc2)CCCC1` yielded a melting point of 74 °C.

As to `CCCCCCCCCCCCCCCCCCSC(C)(C)C(=O)CC(=O)Nc1ccccc1OC`, the melting point lay in the range of 59 to 61 °C.

Turning to `CN(CC(N)=O)c1nccc(-c2ccc(C(=O)NCCc3ccc4[nH]cc(C(=N)N)c4c3)cc2)n1`, the melting point is 96 to 98 °C.

Compound `Cn1c(=O)c2c(ncn2CCCN2CCC(C(=O)c3ccc(F)cc3)CC2)n(C)c1=O` registered a melting point of 114 to 119 °C.

On to `CCOC(=O)C1=C(C)Nc2nc(N)nc(N)c2C1c1ccc(OC)cc1` (configuration not stated), for which the melting point amounted to 98 °C.

The compound `Cc1ccc(S(=O)(=O)N(CCN(CC(=O)O)S(=O)(=O)c2ccc(C)cc2)CCN(CC(=O)O)S(=O)(=O)c2ccc(C)cc2)cc1` displayed a melting point of 177 to 180 °C.

The compound `O=C1N[C@H](Cc2ccccc2C(F)(F)F)[C@H](c2ccc(F)cc2)O1` (racemic) displayed a melting point of 138 to 140 °C.

With `CCCc1c(OCCCOc2ccc3c(c2CCC)OC(CCC(=O)O)C=C3)ccc(C(C)=O)c1O` (configuration not stated), the melting point was in the range of 60 to 62 °C.

As to `O=[N+]([O-])c1ccc(OCCN2CCC(Cc3ccccc3)CC2)cc1O`, the melting point lay in the range of 136 to 137 °C.

With `N#Cc1ccc2c(c1)C(c1ncnc3c1cnn3C1CCCC1)C(=O)N2` (configuration not stated), the melting point was more than 300 °C.

Compound `BrCc1cc2ccsc2c2ccccc12` had a melting point of 99 to 101 °C.

Compound `CN(C)CCNC(=O)N1CCN(c2ccc(Cl)c(Cl)c2)CC1` returned a melting point of 80 to 83 °C.

As to `CC1=C(N)C(C)C2CC(C)(CC3CCN(c4ccc(-n5ccnc5)cc4)CC3)OC2=C1C` (configuration not stated), the melting point lay in the range of 170 to 172 °C.

For `COc1cc2c(=O)cc(C(=O)O)n(C)c2ccc1=O`, the melting point was more than 250 °C.

Compound `Cc1cc(C)c(-c2c(O)sc(-c3ccccc3)nc2=O)c(C)c1` gave a melting point of 240 to 242 °C.

In the case of `CC1=NS(=O)(=O)N(C)C(Cl)=N1`, the melting point lay in the range of 86 to 90 °C.

Consider `COC(=O)/C(=N/N(C)C)c1ccc(OCCOc2ccc3ccccc3c2)cc1`, for which the melting point is 109 to 111 °C.

Compound `CC(C)(C)OC(=O)N1CCn2c(C#N)c(-c3cccc(F)c3)c(C(=O)O)c2C1` showed a melting point of more than 210 °C.

Regarding `CC(=O)NC[C@H]1CN(c2ccc(N3CCC(=O)N(C)CC3)c(F)c2)C(=O)O1`, the melting point lay within 203 to 204 °C.

For `COc1cc(C(OC(C)=O)C(=O)O)cc(OC)c1OC` (configuration not stated), the melting point was in the range of 135 to 139 °C.

`COc1ccccc1Oc1c(NS(=O)(=O)c2ccc3c(c2)OCO3)nc(-c2ccnc(-c3nnn[nH]3)c2)nc1OCCO` returned a melting point of 227 to 229 °C.

As to `C=CCc1cc(C)cc(C(Nc2ccc(C(=N)N)cc2)C(=O)O)c1OCCO` (racemic), the melting point worked out at 228 °C.
